Test results reported in patent publication US7888332B2, “Hydrazide-containing CFTR inhibitor compounds and uses thereof” (The Regents of the University of California, priority 2004, dated 2011).
Read-outs that look alike come from different tables or passages of the source.

Key:
[1] = Spectrophotometric pH titration (pKa); type: physicochemical
Description: FIG. 5A is a graph illustrating the pH-dependent absorbance changes (right panel) of the chemical compounds (10 μM) (corresponding chemical structures, left panel) in NaCl (100 mM) containing MES, HEPES, boric acid, and citric acid (each 10 mM) titrated to different pH using HCl/NaOH. Absorbance changes measured at analytical wavelengths of 346, 348, 346, and 236 nm (top to bottom).

[2] = target: T1, CFTR (cAMP-stimulated short-circuit current) in T84 cells (Homo sapiens, UniProt P13569); experiment: Short-circuit current in non-permeabilized T84 cells; type: cell-based
T1 construct: endogenous in cells; host or cells: T84 colon epithelial cells
T1 sequence (P13569 whole entry): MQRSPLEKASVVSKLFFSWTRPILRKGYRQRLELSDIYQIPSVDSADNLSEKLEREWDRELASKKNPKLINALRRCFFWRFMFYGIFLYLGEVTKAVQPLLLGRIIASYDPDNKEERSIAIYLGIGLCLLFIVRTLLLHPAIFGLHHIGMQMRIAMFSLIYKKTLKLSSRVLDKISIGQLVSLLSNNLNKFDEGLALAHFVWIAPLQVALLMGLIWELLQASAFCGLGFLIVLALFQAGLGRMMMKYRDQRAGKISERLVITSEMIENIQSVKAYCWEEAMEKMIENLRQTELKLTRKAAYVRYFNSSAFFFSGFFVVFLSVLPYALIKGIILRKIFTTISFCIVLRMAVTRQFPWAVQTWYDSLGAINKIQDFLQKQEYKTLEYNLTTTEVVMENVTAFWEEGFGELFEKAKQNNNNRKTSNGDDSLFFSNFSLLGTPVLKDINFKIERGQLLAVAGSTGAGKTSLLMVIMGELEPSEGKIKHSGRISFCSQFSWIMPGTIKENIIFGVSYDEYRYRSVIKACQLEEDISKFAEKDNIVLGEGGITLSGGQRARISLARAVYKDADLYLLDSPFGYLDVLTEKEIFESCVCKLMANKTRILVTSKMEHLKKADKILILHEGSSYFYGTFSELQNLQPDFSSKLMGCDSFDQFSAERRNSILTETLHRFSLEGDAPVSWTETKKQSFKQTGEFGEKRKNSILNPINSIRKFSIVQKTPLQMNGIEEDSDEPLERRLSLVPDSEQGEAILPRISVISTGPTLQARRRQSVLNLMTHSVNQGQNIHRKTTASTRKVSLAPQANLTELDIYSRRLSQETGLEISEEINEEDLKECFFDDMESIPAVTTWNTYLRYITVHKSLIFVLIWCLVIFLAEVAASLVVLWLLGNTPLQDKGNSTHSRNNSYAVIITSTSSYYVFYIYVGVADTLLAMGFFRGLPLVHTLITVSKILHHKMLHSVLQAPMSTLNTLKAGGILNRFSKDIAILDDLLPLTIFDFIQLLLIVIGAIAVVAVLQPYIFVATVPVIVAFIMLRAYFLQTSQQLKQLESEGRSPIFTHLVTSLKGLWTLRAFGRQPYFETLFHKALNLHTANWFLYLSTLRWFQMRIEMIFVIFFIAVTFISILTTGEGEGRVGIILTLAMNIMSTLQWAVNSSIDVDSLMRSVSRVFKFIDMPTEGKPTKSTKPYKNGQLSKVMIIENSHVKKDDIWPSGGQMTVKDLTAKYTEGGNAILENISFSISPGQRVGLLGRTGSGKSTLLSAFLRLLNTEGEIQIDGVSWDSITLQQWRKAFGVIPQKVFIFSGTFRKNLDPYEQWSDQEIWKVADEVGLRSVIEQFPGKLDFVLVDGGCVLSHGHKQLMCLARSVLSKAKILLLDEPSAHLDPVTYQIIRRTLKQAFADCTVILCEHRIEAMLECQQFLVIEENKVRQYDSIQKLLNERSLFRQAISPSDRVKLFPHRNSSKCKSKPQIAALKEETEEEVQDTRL
Description: (§1) The efficacy of GlyH-101 in inhibiting cAMP/cholera toxin-induced intestinal fluid secretion was also evaluated. Short-circuit current experiments were done in different cell types and in intact mouse ileum under non-permeabilized conditions and in the absence of a Cl^− gradient. In each case CFTR was activated by CPT-cAMP after ENaC inhibition by amiloride. […] Inhibition was ˜100% at higher GlyH-101 concentrations. Cholera toxin-induced intestinal fluid secretion was measured in an in vivo closed-loop model in which loops for each mouse were injected with saline (control), cholera toxin (1 μg), or cholera toxin (1 μg)+GlyH-101 (0.25 μg). GlyH-101 was added to the lumen (rather than systemically) based on initial studies showing poor intestinal absorption and little effect of systemically administered compound. Compared to the saline control, the cholera toxin-induced increase in fluid secretion over 4 hours, quantified from loop weight-to-length ratio, was 80% reduced by GlyH-101.

[3] = target: T2, CFTR (cAMP-stimulated short-circuit current) in human airway cells (Homo sapiens, UniProt P13569); experiment: Short-circuit current in human airway (primary human bronchial) cells; type: cell-based; conditions: primary human bronchial cell cultures
T2 construct: endogenous in cells; host or cells: primary human bronchial epithelial cell cultures
T2 sequence (P13569 whole entry): as above
Description: as §1

[4] = target: T3, CFTR (cAMP-stimulated short-circuit current) in mouse ileum (Mus musculus, UniProt P26361); experiment: Short-circuit current in intact mouse ileum
T3 construct: from tissue; host or cells: isolated mouse ileal segments in a micro-Ussing chamber
T3 sequence (P26361 whole entry): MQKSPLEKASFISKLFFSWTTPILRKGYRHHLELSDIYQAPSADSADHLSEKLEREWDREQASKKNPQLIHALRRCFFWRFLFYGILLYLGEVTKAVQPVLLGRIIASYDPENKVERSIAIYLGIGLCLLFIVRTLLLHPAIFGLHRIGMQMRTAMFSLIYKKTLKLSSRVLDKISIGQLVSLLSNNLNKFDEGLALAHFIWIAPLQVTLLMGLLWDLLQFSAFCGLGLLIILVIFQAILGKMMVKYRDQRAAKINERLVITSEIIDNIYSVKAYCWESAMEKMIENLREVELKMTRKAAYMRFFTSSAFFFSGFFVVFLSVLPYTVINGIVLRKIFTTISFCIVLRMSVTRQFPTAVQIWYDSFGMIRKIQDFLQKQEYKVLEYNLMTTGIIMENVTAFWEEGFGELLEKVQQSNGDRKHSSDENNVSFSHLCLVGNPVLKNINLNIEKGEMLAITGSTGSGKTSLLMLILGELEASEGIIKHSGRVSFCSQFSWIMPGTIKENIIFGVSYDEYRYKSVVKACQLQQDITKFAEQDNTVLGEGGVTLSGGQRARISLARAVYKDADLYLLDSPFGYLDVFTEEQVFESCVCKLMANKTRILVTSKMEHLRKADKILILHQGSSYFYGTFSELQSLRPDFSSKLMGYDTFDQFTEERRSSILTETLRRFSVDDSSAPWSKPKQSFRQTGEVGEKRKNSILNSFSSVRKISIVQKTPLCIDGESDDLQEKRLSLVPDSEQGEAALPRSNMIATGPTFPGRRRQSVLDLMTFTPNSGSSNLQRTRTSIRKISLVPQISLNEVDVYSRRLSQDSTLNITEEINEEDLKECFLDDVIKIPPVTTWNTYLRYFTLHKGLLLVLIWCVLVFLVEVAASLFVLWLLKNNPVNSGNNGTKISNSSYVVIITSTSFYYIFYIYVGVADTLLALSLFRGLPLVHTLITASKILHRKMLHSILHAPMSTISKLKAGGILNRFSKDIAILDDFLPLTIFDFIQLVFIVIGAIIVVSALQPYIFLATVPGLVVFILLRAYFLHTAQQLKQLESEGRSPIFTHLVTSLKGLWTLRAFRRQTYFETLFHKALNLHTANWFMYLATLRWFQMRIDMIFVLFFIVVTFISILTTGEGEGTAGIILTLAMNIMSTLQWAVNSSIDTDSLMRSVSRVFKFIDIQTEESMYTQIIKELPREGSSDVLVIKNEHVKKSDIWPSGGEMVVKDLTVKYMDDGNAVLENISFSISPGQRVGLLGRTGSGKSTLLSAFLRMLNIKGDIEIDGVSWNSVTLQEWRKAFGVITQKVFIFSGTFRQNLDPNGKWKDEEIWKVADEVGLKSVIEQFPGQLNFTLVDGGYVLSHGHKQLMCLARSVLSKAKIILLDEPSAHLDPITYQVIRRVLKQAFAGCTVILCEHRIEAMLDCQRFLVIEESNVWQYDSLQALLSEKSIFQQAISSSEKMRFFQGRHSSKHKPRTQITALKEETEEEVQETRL
Description: as §1

[5] = test system: cholera toxin-induced intestinal fluid secretion; design: species or system mice; conditions: mouse, in vivo
[6] = Initial studies of GlyH-101 intestinal absorption and systemic administration; type: in vivo
Description: as §1

[7] = target: T4, CFTR (Homo sapiens, UniProt P13569); experiment: Whole-cell patch-clamp on FRT cells expressing CFTR; type: cell-based; design: expressed in transfected cells; host or cells: Fisher Rat Thyroid (FRT) cells, stably transfected; conditions: for Ki: 5 μM forskolin, read-out: apparent Ki
T4 sequence (P13569 whole entry): as the sequence (P13569 whole entry) above
Description: (§2) Patch-clamp experiments were carried out at room temperature on FRT cells stably expressing wildtype CFTR. Cell-attached and whole-cell configurations were used (Hamill et al., Pflugers Arch. 391:85-100, 1981). The cell membrane was clamped at specified voltages using an EPC-7 patch-clamp amplifier (List Medical). Data were filtered at 500 Hz and digitized at 2000 Hz. For whole-cell experiments the pipette solution contained (in mM): 120 CsCl, 10 TEA-Cl, 0.5 EGTA, 1 MgCl2, 40 mannitol, 10 Cs-HEPES and 3 mM MgATP (pH 7.3). For cell attached experiments EGTA was replaced with 1 mM CaCl2. The bath solution for whole-cell experiments contained (in mM): 150 NaCl, 1 CaCl2, 1 MgCl2, 10 glucose, 10 mannitol, 10 Na-TES (pH 7.4). In cell-attached experiments the bath solution contained (in mM): 130 KCl, 2 NaCl, 2 CaCl2, 2 MgCl2, 10 glucose, 20 mannitol, and 10 K-Hepes (pH 7.3). Inhibitors were applied by extracellular perfusion. CFTR channel activity in cell-attached patches was analyzed as described previously (Taddei et al., FEBS Lett. 558:52-56, 2004).
The mechanism of CFTR block by GlyH-101 was studied using the whole-cell configuration of the patch-clamp technique. After maximal activation of CFTR in stably transfected FRT cells by 5 μM forskolin, current-voltage relationships were measured at GlyH-101 concentrations from 0 to 50 μM. […] Extracellular perfusion with 10 μM GlyH-101 produced an immediate reduction in current that was strongly dependent on membrane potential (FIG. 4A, right panel). At more positive membrane potentials outward positive currents (Cl^− movement into the cell) were reduced compared to inward currents. […] Data for the thiazolidinone 3-[(3-trifluoromethyl)phenyl]-5-[(4-carboxyphenyl)methylene]-2-thioxo-4-thiazolidinone (referred to herein as CFTRinh-172) (5 μM) is shown for comparison. […] FIG. 4C summarizes percentage CFTR current block as a function of GlyH-101 concentration at different membrane voltages.

[8] = target: T4, CFTR; experiment: Cell-attached patch-clamp, CFTR single channel activity in FRT cells; type: cell-based; design: expressed in transfected cells; host or cells: Fisher Rat Thyroid (FRT) cells, stably transfected; conditions: for Mean channel open time: +60 mV
Description: as §2
Cell-attached patch-clamp experiments were carried out to investigate the mechanism of GlyH-101 block of CFTR Cl^− current at the single-channel level. […] In the absence of the inhibitor, mean channel open time was 264±11 ms (SE, n=10). Mean channel open times at +60 mV at 0.4, 1, and 5 μM GlyH-101 were reduced to 181±29, 38±5, and 13±2 ms, respectively (n=5; p<0.01 for all concentrations vs. control).

[9] = CPT-cAMP after amiloride, read-out: Ki for inhibition of cAMP-stimulated short-circuit current

O=C(CNc1ccc2ccccc2c1)NN=Cc1cc(Br)c(O)c(Br)c1O [GlyH-101, N-2-napthalenyl-[(3,5-dibromo-2,4-dihydroxyphenyl)methylene]glycine hydrazide]
pKa, first (para) phenolic hydroxyl [1]: ~5.5
pKa, second ortho hydroxyl [1]: ~8.5
pKa, secondary amine [1]: ~4.7
ionic form ([1]; pH between 6 and 8): singly charged anion
Inhibition at higher concentrations [2]: ~100%
Ki [2, 9]: ~5 µM
Inhibition at higher concentrations [3]: ~100%
Ki [3, 9]: ~5 µM
Inhibition at higher concentrations [4]: ~100%
Ki [4, 9]: ~5 µM
reduction of cholera toxin-induced increase in fluid secretion (loop weight-to-length ratio) [5]: 80%
effect of systemically administered compound [6]: little effect
intestinal absorption [6]: poor
increase of apparent Ki as applied potential varied from +60 to −60 mV [7]: approximately four-fold
Hill coefficient nH ([7]; +20 mV): 0.7
Ki ([7]; +20 mV): 3.8 µM
Hill coefficient nH ([7]; +60 mV): 0.5
Ki ([7]; +60 mV): 1.4 µM
current-voltage relationship ([7]; GlyH-101 at submaximal concentrations, CFTRinh-172 5 μM): inward rectification
Hill coefficient nH ([7]; −20 mV): 1.3
Ki ([7]; −20 mV): 5 µM
Hill coefficient nH ([7]; −60 mV): 1.8
Ki ([7]; −60 mV): 5.6 µM
inhibition of CFTR Cl− conductance at high concentrations ([7]; ≧30 μM, whole-cell patch-clamp and short-circuit current experiments): fully inhibited
change in single channel conductance ([8]; 0.4-5 μM): without a change
Mean channel open time ([8]; 0.4 μM GlyH-101): 181 ± 29 ms
Mean channel open time ([8]; 1 μM GlyH-101): 38 ± 5 ms
Mean channel open time ([8]; 5 μM GlyH-101): 13 ± 2 ms
